Experimental data taken from patent US4939134A, “26-aminocholesterol and derivatives and analogs thereof in the regulation of cholesterol accumulation in body tissue” (New York University, priority 1988, dated 1990).
Entries after “also recorded” stand apart in the source; their conditions may differ.

Tests used:
HepG2 Cells = assay: De novo cholesterol synthesis in HepG2 hepatocytes (D2O); type: cell-based, human; conditions: for % DE NOVO (De Novo Cholesterol Synthesis): HepG2, 96 h, n = 3, untreated 55.8; for de novo cholesterol synthesis (in words): HepG2 / human hepatocytes
Description: HepG2 cells were obtained from Dr. Barbara Knowles of the Wistar Institute, Pennsylvania. The HepG2 stock monolayers were maintained under the same conditions as the fibroblast monolayers, in a medium comprising MEM supplemented with 10% heat-inactivated FBS, and 1% (v/v) each of penicillin-streptomycin solution, non-essential and essential amino acids, and L-glutamine.
For experiments using HepG2 cells, confluent stock monolayers were washed once with Dulbecco's PBS, dissociated with 0.05-0.02% trypsin-EDTA followed by treatment with deoxyribonuclease I (0.1%), and were seeded (3.0×10^6) under identical conditions. The experimental MEM contained 25% (v/v) D2 O, 9% (v/v) delipidated FBS, and 1% (v/v) each of heat-inactivated FBS, penicillin-streptomycin, essential and non-essential amino acids, L-glutamine and 20 mM HEPES.
(§1) The fibroblast and hepatoblastoma cells were cultured in media containing 25% D2 O and 1% FBS in order to determine de novo cholesterol synthesis under conditions that permit receptor mediated cholesterol transport, according to the method of Easterman & Javitt et al., J. Lipid Res., 26: 950-954 (1985). Dish cultures of each cell type were prepared, and 26-aminocholesterol, dissolved in N,N-dimethylformamide (DMF, 9 ul per dish, 0.3% v/v) was added to each culture. The cells were then grown to confluence (96 hours, day 5). […] Duplicate or triplicate dishes containing 9 ul of DMF, but without 26-aminocholesterol, were used as controls.
(§2) After 96 hours of incubation, medium was removed from the cell cultures, and the cells were washed with Dulbecco's PBS and were harvested with 0.05% trypsin - 0.02% EDTA. The protease was deactivated with an equivolume aliquot of soybean trypsin inhibitor, and the resulting cell suspension was centrifuged for 5 minutes at 500xg. An internal standard of 5B-cholestan-3B-ol was added to the pellets prior to extraction with an 8:4:3 chloroform:methanol:water Folch mixture, as described in Folch et al., J. Biol. Chem., 266: 497-509 (1957). An aliquot of the extract was blown to dryness under nitrogen and silylated with 2:1:1 MSTFA (a sylated reagent supplied by Pierce Co.): toluene:-pyridine. Free cholesterol was determined by gas-liquid chromatography (GLC) on a Perkin-Elmer capillary gas-liquid chromatography model 8320 fitted with a 20 m DE-1 methylsilicon glass column (Supelco). The remaining extract was dried and saponified with 2% ethanolic KOH at 80° C. for one hour. The […] was then re-extracted and total cholesterol was measured by GLC after silylation. Cholesterol ester was calculated as the difference between the total and free cholesterol determinations. Newly synthesized cholesterol was determined by GLC-MS isotope mass ratios, using a Hewlett-Packard GC-MS spectrometer model 5890 fitted with DB-1 methyl silicon 0.18 i.d. 20 m glass column (Supelco), according to the method of J. Lipid. Res., 26: 950-954, supra. […]

[1] = test system: DNA synthesis and cell growth; conditions: mechanism appears independent of HMG CoA reductase activity; cited from earlier work
Human Fibroblasts = assay: De novo cholesterol synthesis in human fibroblasts (D2O); type: cell-based; conditions: for % DE NOVO (De Novo Cholesterol Synthesis): 96 h, n = 3, untreated 19.0
Protocol: Normal LDLR(+) human fibroblasts (GM3440) were obtained from the National Institute of General Medical Sciences Human Genetic Cell Repository. Stock fibroblast monolayers were maintained in T-75 disposable Nunc flasks, in a medium comprising 10 ml of MEM (Eagle's Minimum Essential Medium with Earl's salts, pH 7.4) supplemented with 10% (v/v) fetal bovine serum (FBS), 2% (v/v) non-essential and essential amino acids, 1% (v/v) MEM vitamins, 1% L-glutamine (292 ug/ml), 1% penicillin (100 U/ml)-streptomycin (100 ug/ml). The fibroblast stock was maintained at 37° C. in a humidified atmosphere of 5% CO2 and 95% air.
For experiments using fibroblasts, confluent stock cultures (5-18 passages) were washed once with Dulbecco's PBS (phosphate buffered saline) prior to the addition of 3 ml aliquots of experimental MEM containing 25% (v/v) D2 O, 9% (v/v) dilapidated FBS, 1% FBS (v/v), 1% MEM vitamins and L-glutamine, and 2% of essential and non-essential amino acids and 20 mM HEPES buffer.
as §1, §2

[2] = test system: fibroblast and hepatoblastoma cells; type: cell-based, human
Protocol: Lipid Res., 26: 950-954 (1985). Dish cultures of each cell type were prepared, and 26-aminocholesterol, dissolved in N,N-dimethylformamide (DMF, 9 ul per dish, 0.3% v/v) was added to each culture. The cells were then grown to confluence (96 hours, day 5). […] Duplicate or triplicate dishes containing 9 ul of DMF, but without 26-aminocholesterol, were used as controls.

HMG CoA reductase = HMG CoA reductase activity in fibroblasts; type: cell-based

| SMILES | % DE NOVO (De Novo Cholesterol Synthesis) (HepG2 Cells; 0.156 uM) | % DE NOVO (De Novo Cholesterol Synthesis) (HepG2 Cells; 0.312 uM) | % DE NOVO (De Novo Cholesterol Synthesis) (HepG2 Cells; 0.625 uM) | de novo cholesterol synthesis (in words) (HepG2 Cells) | DNA synthesis and cell growth [1] | de novo cholesterol synthesis (in words) (Human Fibroblasts) | % DE NOVO (De Novo Cholesterol Synthesis) (Human Fibroblasts; 0.156 uM) | % DE NOVO (De Novo Cholesterol Synthesis) (Human Fibroblasts; 0.312 uM) | % DE NOVO (De Novo Cholesterol Synthesis) (Human Fibroblasts; 0.625 uM) | effect on cell growth [2] | HMG CoA reductase activity (HMG CoA reductase) | % DE NOVO (De Novo Cholesterol Synthesis) (HepG2 Cells; 5.0 uM) | % DE NOVO (De Novo Cholesterol Synthesis) (HepG2 Cells; 10.0 uM) | % DE NOVO (De Novo Cholesterol Synthesis) (HepG2 Cells; 20.0 uM) | % DE NOVO (De Novo Cholesterol Synthesis) (Human Fibroblasts; 5.0 uM) | % DE NOVO (De Novo Cholesterol Synthesis) (Human Fibroblasts; 10.0 uM) | % DE NOVO (De Novo Cholesterol Synthesis) (Human Fibroblasts; 20.0 uM) |
| --- | --- | --- | --- | --- | --- | --- | --- | --- | --- | --- | --- | --- | --- | --- | --- | --- | --- |
| C[C@@H](CN)CCC[C@@H](C)[C@H]1CC[C@H]2[C@@H]3CC=C4C[C@@H](O)CC[C@]4(C)[C@H]3CC[C@]12C [26-NH2, 26-aminocholesterol] | 38.3% | 45.1% | 42.0% | do not provide a similar reduction; also recorded: no impact | downregulate DNA synthesis and cell growth | significant reductions | 16.7% | 10.0% | 2.7% | No effect on cell growth was observed | inhibit HMG CoA reductase activity | – | – | – | – | – | – |
| CC(CO)CCC[C@@H](C)[C@H]1CC[C@H]2[C@@H]3CC=C4C[C@@H](O)CC[C@]4(C)[C@H]3CC[C@]12C (some centres unmarked) [26-OH, 26-hydroxycholesterol] | – | – | 57.1% | do not provide a similar reduction | – | significant reductions | – | – | 3.9% | – | – | – | – | – | – | – | – |
| CC(CS)CCC[C@@H](C)[C@H]1CC[C@H]2[C@@H]3CC=C4C[C@@H](O)CC[C@]4(C)[C@H]3CC[C@]12C (some centres unmarked) [26-SH] | – | – | – | no impact | – | no impact | – | – | – | – | – | 49.7% | 47.9% | 41.9% | 27.8% | 21.9% | 13.6% |
